# Test system: Ba/F3 cells expressing the empty vector (GFP), CALR wild type (CALR wt-GFP) or CALR mutant (CALR del52-GFP)
# Experiment: Sensitivity of Ba/F3 cells to SAR302503 (CellTiter-Glo cell viability)
# Type: cell-based, murine
# Conditions: Ba/F3 CALR wild type vs CALR 52 base pair deletion mutant; 48 hours; dilution series, highest concentration 40 μM; 10 ng/ml interleukin-3; listed as JAK2 kinase inhibitor
# Protocol: FIG. 7: The sensitivity of Ba/F3 cells to SAR302503. Ba/F3 cells expressing the empty vector (GFP), CALR wild type (CALR wt-GFP) or CALR mutant (CALR del52-GFP) were analyzed by defining cell viability after 48 hours in presence of […] SAR302503. For relative viability, relative luminescence units were normalized to the DMSO control. Error bars represent standard error of the mean.
# The retrovirus was generated and cells were transduced as described before (Zuber et al, 2013). Briefly, PlatE cells (75% confluent in a 10 cm dish) were transfected with 20 μg of the respective viral vector using the Calcium Phosphate Transfection Kit (Sigma #CAPHOS). The medium was changed after 24 hours and viral supernatant was collected at 36, 40, 44 and 60 hours after transfection. […] The cells were analyzed for transduction efficiency by flow cytometry, 48 hours after the final transduction step. The GFP positive cells were sorted by FACS and the sorting efficiency was analyzed by flow cytometry.
# To define the sensitivity to the inhibitor SAR302503 (Sanofi), Ba/F3 cells were plated in 96-well plates at 25000 cells per well in triplicates on a dilution series of SAR302503 (highest concentration 40 μM) and in presence of 10 ng/ml interleukin-3. After 48 hours cell viability was determined by the CellTiter-Glo® Luminescent Cell Viability Assay (Promega).
smiles,measurement,value
Cc1cnc(Nc2ccc(OCCN3CCCC3)cc2)nc1Nc1cccc(S(=O)(=O)NC(C)(C)C)c1 [SAR302503],sensitivity of cells to the JAK2 kinase inhibitor SAR302503 (relative cell viability),suppressed equally
